The values below come from patent US20100068160A1, “COSMETIC AND DERMATOLOGICAL FORMULATIONS INCLUDING PHENOXYALKYL ESTERS” (EVONIK GOLDSCHMIDT GMBH, priority 2008, published 2010).

The series is described as follows: Dissolving power of UV photoprotective filters in phenoxyalkyl esters. Format: physicochemical. The conditions noted are these: percent by weight, 22° C.; for Dissolving power for Benzophenone-3: maximum dissolvable amount of UV filter Benzophenone-3 (BP-3) in the substance; for Dissolving power for BMDM: maximum dissolvable amount of UV filter Butyl Methoxydibenzoylmethane (BMDM) in the substance; for Dissolving power for Tinosorb S: maximum dissolvable amount of UV filter Tinosorb S (Bemotrizinol, BEMT) in the substance; for Dissolving power for Uvinul T 150: maximum dissolvable amount of UV filter Uvinul T 150 (Octyl Triazone, EHT) in the substance. The source says: To test the dissolving power of crystalline UV photoprotective filters in phenoxyalkyl esters, four representative UV-A and/or UV-B photoprotective filters were selected by way of representation. These were benzophenone-3 (2-hydroxy-4-methoxybenzophenone, BP-3), Butyl Methoxydibenzoylmethane (BMDM), Octyl Triazone (2,4,6-trianilino-p-(carbo-2′-ethylhexyl-1′-oxy)-1,3,5-triazines, EHT) and Bemotrizinol (bis-ethylhexyloxyphenol meth-oxyphenyl triazine, BEMT).
To determine the dissolving power for these […] UV photoprotective filters, in each case a certain amount (50 g) of one of the compounds according to the invention was initially introduced and heated to 22° C. One (1) percent by weight of a UV photoprotective filter was added and the mixture was stirred until this amount had dissolved completely and homogeneously. This operation was repeated until the maximum dissolvable amount of the UV photoprotective filter was exceeded. For complete dissolution in the case of relatively high concentrations, a prolonged stirring time of several hours was often necessary.
If the maximum concentration had been roughly determined in this way, to finely determine the concentration range around this maximum concentration the procedure was repeated using smaller initial weight amounts of the […] photoprotective filter.
The reference used was the compound Tegosoft® TN (C12-15 alkyl benzoate).

With `CCCCC(CC)C(=O)OC(C)COc1ccccc1` (centres unmarked) [1-Phenoxy-2-propyl 2-ethylhexanoate], the “Dissolving power for Benzophenone-3” value is reported as 21%, the “Dissolving power for BMDM” value is given as 15%, the “Dissolving power for Tinosorb S” value was found to be 9% and the “Dissolving power for Uvinul T 150” value was 4%.
The like results for `CCCCCCCC(=O)OC(C)COc1ccccc1` (centres unmarked) [1-Phenoxy-2-propyl caprylate, 1-phenoxy-2-propyloctanoic acid ester] were, in that order, 21%, 14%, 9% and 6%.
The like results for `CC(COc1ccccc1)OC(=O)C1CCCCC1` (centres unmarked) [1-Phenoxy-2-propyl cyclohexanoate, 1-phenoxy-2-propylcyclohexanecarboxylic acid ester] were, in that order, 27%, 16%, 10% and 6%.
The like results for `CCCCCCC(CCCC)C(=O)OCCOc1ccccc1` (centres unmarked) [2-Phenoxyethyl 2-butyloctanoate, 2-phenoxyethyl-2-butyloctanoic acid ester] were, in that order, 19%, 14%, 8% and 5%.
Regarding `CCCCC(CC)C(=O)OCCOc1ccccc1` (centres unmarked) [2-Phenoxyethyl 2-ethylhexanoate, 2-phenoxyethyl-2-ethylhexanoic acid ester], the “Dissolving power for Benzophenone-3” value is recorded as 25%, the “Dissolving power for BMDM” value was 17%, the “Dissolving power for Tinosorb S” value is listed as 12% and the “Dissolving power for Uvinul T 150” value was found to be 4%.
As to `CCCCCC(CCC)C(=O)OCCOc1ccccc1` (centres unmarked) [2-Phenoxyethyl 2-propylheptanoate], the “Dissolving power for Benzophenone-3” value was found to be 20%, the “Dissolving power for BMDM” value was determined as 13%, the “Dissolving power for Tinosorb S” value stood at 9% and the “Dissolving power for Uvinul T 150” value is reported as 4%.
As to `CCCCCC(=O)OCCOc1ccccc1` [2-Phenoxyethyl caproate], the “Dissolving power for Benzophenone-3” value was 28%, the “Dissolving power for BMDM” value is on record as 18%, the “Dissolving power for Tinosorb S” value is reported as 11% and the “Dissolving power for Uvinul T 150” value amounted to 6%.
The like results for `CCCCCCCC(=O)OCCOc1ccccc1` [2-Phenoxyethyl caprylate, 2-phenoxyethyloctanoic acid ester] were, in that order, 28%, 18%, 11% and 6%.
On to `O=C(OCCOc1ccccc1)C1CCCCC1` [2-Phenoxyethyl cyclohexanoate, 2-phenoxyethylcyclohexanecarboxylic acid ester], for which the “Dissolving power for Benzophenone-3” value turned out to be 30%, the “Dissolving power for BMDM” value is 19%, the “Dissolving power for Tinosorb S” value is on record as 12% and the “Dissolving power for Uvinul T 150” value stood at 6%.
The like results for `CC(C)CCCCCC(=O)OCCOc1ccccc1` [2-Phenoxyethyl isononanoate] were, in that order, 25%, 16%, 9% and 4%.
“C12-15 alkyl benzoate [Tegosoft ® TN, reference compound]”: the “Dissolving power for Benzophenone-3” value is on record as 15%, the “Dissolving power for BMDM” value worked out at 13%, the “Dissolving power for Tinosorb S” value is reported as 9% and the “Dissolving power for Uvinul T 150” value is given as 4%.
